The results in this text go back to ChEMBL document CHEMBL1148914, “Cadinane sesquiterpenes from the brown alga Dictyopteris divaricata” (J Nat Prod, 2004).

The test system of one test is BGC-823. Description: Cytotoxicity against human BGC823 cells by MTT assay. Format: functional, cell-based. In general terms: Tetrazolium dyes change colour on reduction, which living cells bring about.
On to `C=C1CC[C@]2(O)[C@@H]([C@@H]1O)[C@H](C(C)C)CC[C@H]2C`, for which the IC50 (commonly the concentration that gives 50% inhibition) is over 10 µg/mL.

In turn, `CC1=CC[C@@]2(O)[C@H](C)CC[C@@H](C(C)C)[C@@H]2C1=O` gave an IC50 of over 10 µg/mL.

As to `CC1=CC[C@]2(O)[C@@H]([C@@H]1O)[C@H](C(C)C)CC[C@H]2C`, the IC50 is over 10 µg/mL.

Consider `C=C1CC[C@]2(O)[C@H]([C@H](C(C)(C)O)CC[C@H]2C)[C@H]1O`, for which the IC50 was over 10 µg/mL.

`CC1=CC[C@]2(O)[C@@H]([C@H]1O)[C@H](C(C)C)CC[C@H]2C` came in with an IC50 of over 10 µg/mL.

`CC(C)[C@@H]1CC[C@@H](C)[C@]2(O)CC[C@@](C)(O)[C@@H](O)[C@@H]12` showed an IC50 of over 10 µg/mL.

`CC(C)[C@@H]1CC[C@@H](C)[C@]2(O)CCC(C=O)=C[C@@H]12` registered an IC50 of over 10 µg/mL.

For a further test, the system named is MCF7. Description: Cytotoxicity against human MCF7 cells by MTT assay. Format: functional, cell-based.
`C=C1CC[C@]2(O)[C@@H]([C@@H]1O)[C@H](C(C)C)CC[C@H]2C` came in with an IC50 of over 10 µg/mL.

`CC1=CC[C@@]2(O)[C@H](C)CC[C@@H](C(C)C)[C@@H]2C1=O`: the IC50 is over 10 µg/mL.

With `CC1=CC[C@]2(O)[C@@H]([C@@H]1O)[C@H](C(C)C)CC[C@H]2C`, the IC50 is over 10 µg/mL.

Turning to `C=C1CC[C@]2(O)[C@H]([C@H](C(C)(C)O)CC[C@H]2C)[C@H]1O`, the IC50 was over 10 µg/mL.

In the case of `CC1=CC[C@]2(O)[C@@H]([C@H]1O)[C@H](C(C)C)CC[C@H]2C`, the IC50 was over 10 µg/mL.

Turning to `CC(C)[C@@H]1CC[C@@H](C)[C@]2(O)CC[C@@](C)(O)[C@@H](O)[C@@H]12`, the IC50 was over 10 µg/mL.

`CC(C)[C@@H]1CC[C@@H](C)[C@]2(O)CCC(C=O)=C[C@@H]12` displayed an IC50 of over 10 µg/mL.

The test system of another test is Bel-7402. Description: Cytotoxicity against human Bel7402 cells by MTT assay. Format: functional, cell-based.
Take `C=C1CC[C@]2(O)[C@@H]([C@@H]1O)[C@H](C(C)C)CC[C@H]2C`: the IC50 was over 10 µg/mL.

The molecule `CC1=CC[C@@]2(O)[C@H](C)CC[C@@H](C(C)C)[C@@H]2C1=O` returned a 50% inhibitory concentration (IC50) of over 10 µg/mL.

For the molecule `CC1=CC[C@]2(O)[C@@H]([C@@H]1O)[C@H](C(C)C)CC[C@H]2C`, the IC50 was over 10 µg/mL.

For the molecule `C=C1CC[C@]2(O)[C@H]([C@H](C(C)(C)O)CC[C@H]2C)[C@H]1O`, the IC50 is over 10 µg/mL.

Take `CC1=CC[C@]2(O)[C@@H]([C@H]1O)[C@H](C(C)C)CC[C@H]2C`: the half-maximal inhibitory concentration (IC50) was over 10 µg/mL.

`CC(C)[C@@H]1CC[C@@H](C)[C@]2(O)CC[C@@](C)(O)[C@@H](O)[C@@H]12` gave a concentration for half-maximal inhibition (IC50) of over 10 µg/mL.

In turn, `CC(C)[C@@H]1CC[C@@H](C)[C@]2(O)CCC(C=O)=C[C@@H]12` yielded an IC50 of over 10 µg/mL.

Another test has as its system HCT-8. Nature of the test: Cytotoxicity against human HCT8 cells by MTT assay. Format: functional, cell-based.
Consider `C=C1CC[C@]2(O)[C@@H]([C@@H]1O)[C@H](C(C)C)CC[C@H]2C`, for which the IC50 is over 10 µg/mL.

`CC1=CC[C@@]2(O)[C@H](C)CC[C@@H](C(C)C)[C@@H]2C1=O` gave a concentration for half-maximal inhibition (IC50) of over 10 µg/mL.

Turning to `CC1=CC[C@]2(O)[C@@H]([C@@H]1O)[C@H](C(C)C)CC[C@H]2C`, the IC50 is over 10 µg/mL.

Molecule `C=C1CC[C@]2(O)[C@H]([C@H](C(C)(C)O)CC[C@H]2C)[C@H]1O` gave an IC50 of over 10 µg/mL.

`CC1=CC[C@]2(O)[C@@H]([C@H]1O)[C@H](C(C)C)CC[C@H]2C` yielded an IC50 of over 10 µg/mL.

`CC(C)[C@@H]1CC[C@@H](C)[C@]2(O)CC[C@@](C)(O)[C@@H](O)[C@@H]12` came in with an IC50 of over 10 µg/mL.

Turning to `CC(C)[C@@H]1CC[C@@H](C)[C@]2(O)CCC(C=O)=C[C@@H]12`, the concentration for half-maximal inhibition (IC50) is over 10 µg/mL.

The test system of another test is A549. Description: Cytotoxicity against human A549 cells by MTT assay. It is filed as functional, cell-based.
`C=C1CC[C@]2(O)[C@@H]([C@@H]1O)[C@H](C(C)C)CC[C@H]2C` gave an IC50 of over 10 µg/mL.

For the molecule `CC1=CC[C@@]2(O)[C@H](C)CC[C@@H](C(C)C)[C@@H]2C1=O`, the IC50 is over 10 µg/mL.

For the molecule `CC1=CC[C@]2(O)[C@@H]([C@@H]1O)[C@H](C(C)C)CC[C@H]2C`, the IC50 is over 10 µg/mL.

Take `C=C1CC[C@]2(O)[C@H]([C@H](C(C)(C)O)CC[C@H]2C)[C@H]1O`: the IC50 was over 10 µg/mL.

`CC1=CC[C@]2(O)[C@@H]([C@H]1O)[C@H](C(C)C)CC[C@H]2C` had an IC50 of over 10 µg/mL.

`CC(C)[C@@H]1CC[C@@H](C)[C@]2(O)CC[C@@](C)(O)[C@@H](O)[C@@H]12` registered an IC50 of over 10 µg/mL.

`CC(C)[C@@H]1CC[C@@H](C)[C@]2(O)CCC(C=O)=C[C@@H]12`: the IC50 was over 10 µg/mL.
